Consider 47 molecules from patent US20080312301A1, “Substituted N-Benzo[D]Isoxazol-3-Yl-Amine Compounds as Inhibitors of Mglur5, Serotonin (5-Ht) and Noradrenaline Receptors, and Uses Thereof” (Gruenenthal GmbH, priority 2005, published 2008).

The structures appear in SMILES notation.

For the assay, the target named is T1, mGluR5 receptor (Sus scrofa, UniProt I3LUI7).
T1 construct: 450 μg of protein from brain homogenate are incubated with 5 nM^3[H]-MPEP; from tissue; host or cells: pig brain hemispheres without medulla, cerebellum and pons
T1 sequence (I3LUI7 19-1212): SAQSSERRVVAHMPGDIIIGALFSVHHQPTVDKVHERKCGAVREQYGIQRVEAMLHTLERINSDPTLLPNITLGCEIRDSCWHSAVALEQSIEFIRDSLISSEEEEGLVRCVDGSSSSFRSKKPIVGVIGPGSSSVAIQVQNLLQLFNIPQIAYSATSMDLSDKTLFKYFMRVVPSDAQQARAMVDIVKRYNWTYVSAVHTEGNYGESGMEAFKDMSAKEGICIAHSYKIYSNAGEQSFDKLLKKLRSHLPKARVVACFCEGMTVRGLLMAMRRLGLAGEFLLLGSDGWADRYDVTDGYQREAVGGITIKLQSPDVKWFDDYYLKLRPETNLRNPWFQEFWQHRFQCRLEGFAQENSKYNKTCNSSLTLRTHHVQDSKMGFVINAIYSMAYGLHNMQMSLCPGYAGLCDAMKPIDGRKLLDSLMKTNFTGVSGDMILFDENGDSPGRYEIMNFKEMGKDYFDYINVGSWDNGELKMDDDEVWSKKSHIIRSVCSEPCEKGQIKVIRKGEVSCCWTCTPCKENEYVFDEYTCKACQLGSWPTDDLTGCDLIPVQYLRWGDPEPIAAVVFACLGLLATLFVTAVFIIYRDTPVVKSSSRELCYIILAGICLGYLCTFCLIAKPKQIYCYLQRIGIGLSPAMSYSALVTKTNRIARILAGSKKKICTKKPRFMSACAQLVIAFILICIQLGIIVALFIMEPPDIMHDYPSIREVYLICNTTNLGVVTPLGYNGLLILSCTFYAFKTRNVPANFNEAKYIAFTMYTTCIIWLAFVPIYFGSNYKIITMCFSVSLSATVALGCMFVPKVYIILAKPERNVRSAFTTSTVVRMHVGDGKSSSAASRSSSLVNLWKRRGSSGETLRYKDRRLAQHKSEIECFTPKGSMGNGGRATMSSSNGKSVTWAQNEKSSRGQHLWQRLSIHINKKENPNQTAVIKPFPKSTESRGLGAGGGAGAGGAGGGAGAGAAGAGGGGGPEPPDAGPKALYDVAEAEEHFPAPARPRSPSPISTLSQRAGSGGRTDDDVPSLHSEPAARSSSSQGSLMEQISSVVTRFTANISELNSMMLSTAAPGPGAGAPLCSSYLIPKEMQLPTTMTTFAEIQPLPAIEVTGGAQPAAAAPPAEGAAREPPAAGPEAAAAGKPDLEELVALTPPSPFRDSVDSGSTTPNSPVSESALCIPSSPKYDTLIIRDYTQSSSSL
The assay can be described thus: Affinity for the mGluR5 receptor: displacement of 3[H]-MPEP binding in pig brain homogenate. Particulars: 10 μM compound, 5 nM 3[H]-MPEP. The method, then:
II. Method for Determining the Affinity for the mGluR5 Receptor
In each case 450 μg of protein from brain homogenate are incubated with 5 nM^3[H]-MPEP (Tocris, order No. R1212) (MPEP=2-methyl-6-[…]) and the compounds to be investigated (10 μM in the assay) in buffer (as above) in 250 μl incubation mixtures in 96-well microtiter plates at room temperature for 60 min.
The filter plates were then dried at 55° C. for 60 min.
As a reminder, the inhibition is how much of the control response was suppressed. Take `CCC(C(=O)Nc1noc2ccc(C)cc12)c1ccccc1` (centres unmarked) [Example 145, N-(5-methylbenzo[d]isoxazol-3-yl)-2-phenylbutyramide]: at 10 µM the inhibition was 43.5%.
Molecule `Cc1ccc2onc(NC(=O)c3ccc(Br)cc3)c2c1` [Example 119, 4-bromo-N-(5-methylbenzo[d]isoxazol-3-yl)benzamide] gave an inhibition at 10 µM of 37.9%.
For `O=C(Nc1noc2ccc(F)cc12)c1ccc(F)cc1F` [Example 131, 2,4-difluoro-N-(5-fluorobenzo[d]isoxazol-3-yl)benzamide], the “mGluR5 receptor inhibition of the 3[H]-MPEP binding in % (10 μM)” value (from here on “mGluR5 receptor inhibition … in % (10 μM)”) came to 42.52%.
`CCC(C)C(=O)Nc1noc2ccccc12` (centres unmarked) [Example 86, N-benzo[d]isoxazol-3-yl-2-methylbutyramide] gave an inhibition at 10 µM of 39.6%.
The same measure, in the same setting: in the case of `CCCC(C)C(=O)Nc1noc2ccc(C)cc12` (centres unmarked) [Example 146, N-(5-methylbenzo[d]isoxazol-3-yl)-2-methylpentanamide] it was 34%.
The same measure, in the same setting: in the case of `Nc1c(F)c(F)c2c(NC(=O)c3c(F)cccc3F)noc2c1F` [Example 176, N-(6-amino-4,5,7-trifluorobenzo[d]isoxazol-3-yl)-2,6-difluorobenzamide] it was 36.1%; in that of `Cc1cccc(C(=O)Nc2noc3cccc(Cl)c23)c1` [Example 153, N-(4-chlorobenzo[d]isoxazol-3-yl)-3-methylbenzamide], 63.8%; in that of `O=C(Nc1noc2c(F)cccc12)c1ccccc1Cl` [Example 93, 2-chloro-N-(7-fluorobenzo[d]isoxazol-3-yl)benzamide], 35.4%.
In the case of `O=C(Nc1noc2ccccc12)c1c(F)ccc(F)c1F` [Example 89, N-benzo[d]isoxazol-3-yl-2,3,6-trifluorobenzamide], the inhibition at 10 µM is 51.1%.
Molecule `O=C(Nc1noc2cccc(F)c12)c1ccccc1` [Example 147, N-(4-fluorobenzo[d]isoxazol-3-yl)benzamide] came in with an inhibition at 10 µM of 31.4%.
`Cc1ccc2onc(NC(=O)c3ccc(F)cc3F)c2c1` [Example 127, 2,4-difluoro-N-(5-methylbenzo[d]isoxazol-3-yl)benzamide] registered an inhibition at 10 µM of 43.2%.
The molecule `O=C(Nc1noc2ccccc12)c1c(F)cccc1F` [Example 87, N-benzo[d]isoxazol-3-yl-2,6-difluorobenzamide] gave an inhibition at 10 µM of 37%.
For `Cc1ccc2onc(NC(=O)c3ccc(C(C)(C)C)cc3)c2c1` [Example 124, 4-tert-butyl-N-(5-methylbenzo[d]isoxazol-3-yl)benzamide], 10 µM produced 43.5% inhibition.
Molecule `Cc1ccc2onc(NC(=O)c3cccc(F)c3F)c2c1` [Example 126, 2,3-difluoro-N-(5-methylbenzo[d]isoxazol-3-yl)benzamide] had an inhibition at 10 µM of 39.5%.
In the case of `CCC(C)C(=O)Nc1noc2cc(Cl)ccc12` (centres unmarked) [Example 113, N-(6-chlorobenzo[d]isoxazol-3-yl)-2-methylbutyramide], the inhibition at 10 µM turned out to be 49.2%.
On to `O=C(Nc1noc2ccccc12)c1csc2ccccc12` [Example 92, benzo[b]thiophene-3-benzo[d]isoxazol-3-ylcarboxamide], for which the “mGluR5 receptor inhibition … in % (10 μM)” value worked out at 55.98%.
Regarding `CC(C)(C)CC(=O)Nc1noc2ccc(F)cc12` [Example 130, N-(5-fluorobenzo[d]isoxazol-3-yl)-3,3-dimethyl butyramide], the “mGluR5 receptor inhibition … in % (10 μM)” value came to 31.64%.
`COc1ccccc1C(=O)Nc1noc2c(F)cccc12` [Example 98, N-(7-fluorobenzo[d]isoxazol-3-yl)-2-methoxybenzamide] gave an inhibition at 10 µM of 32%.
Consider `O=C(Nc1noc2ccc(F)cc12)c1ccc(F)cc1F` [Example 105, 2,4-difluoro-N-(5-fluorobenzo[d]isoxazol-3-yl)benzamide], for which testing at 10 µM gave an inhibition of 53.8%.
On to `O=C(Nc1noc2cccc(F)c12)C12CC3CC(CC(C3)C1)C2` [Example 150, adamantane-1-(4-fluorobenzo[d]isoxazol-3-yl)carboxamide], for which the “mGluR5 receptor inhibition … in % (10 μM)” value amounted to 53.18%.
On to `O=C(Nc1noc2ccc(Br)cc12)c1cccc(F)c1F` [Example 133, N-(5-bromobenzo[d]isoxazol-3-yl)-2,3-difluorobenzamide], for which the inhibition at 10 µM is 34.6%.
As for `CCCC(C)C(=O)Nc1noc2cccc(OC)c12` (centres unmarked) [Example 161, N-(4-methoxybenzo[d]isoxazol-3-yl)-2-methylpentanamide], the inhibition at 10 µM came out at 38.5%.
On the same count and under the same terms, in the case of `CCCc1ccc(C(=O)Nc2noc3ccc(F)cc23)cc1` [Example 107, N-(5-fluorobenzo[d]isoxazol-3-yl)-4-propylbenzamide] it was 42.1%.
Turning to `O=C(Nc1noc2cc(F)ccc12)c1cccc2ccccc12` [Example 101, naphthalene-1-(6-fluorobenzo[d]isoxazol-3-yl)carboxamide], the “mGluR5 receptor inhibition … in % (10 μM)” value came out at 48.99%.
`O=C(Nc1noc2ccc(Br)cc12)c1c(F)cccc1F` [Example 136, N-(5-bromobenzo[d]isoxazol-3-yl)-2,6-difluorobenzamide] registered an inhibition at 10 µM of 40.8%.
Same read-out and setting: in the case of `Cc1ccc2onc(NC(=O)c3ccc(F)cc3)c2c1` [Example 121, 4-fluoro-N-(5-methylbenzo[d]isoxazol-3-yl)benzamide] it was 32.2%; in that of `O=C(Nc1noc2cc(Br)ccc12)c1ccccc1Cl` [Example 114, N-(6-bromobenzo[d]isoxazol-3-yl)-2-chlorobenzamide], 37.5%; in that of `O=C(Nc1noc2ccc(Br)cc12)c1ccccc1Br` [Example 140, 2-bromo-N-(5-bromobenzo[d]isoxazol-3-yl)benzamide], 38.4%.
`COc1cccc(OC)c1C(=O)Nc1noc2ccc(Br)cc12` [Example 139, N-(5-bromobenzo[d]isoxazol-3-yl)-2,6-dimethoxybenzamide] yielded an inhibition at 10 µM of 41.5%.
Same read-out and setting: in the case of `CC(C)(C)CC(=O)Nc1noc2cccc(Cl)c12` [Example 155, N-(4-chlorobenzo[d]isoxazol-3-yl)-3,3-dimethylbutyramide] it was 52.4%; in that of `CCCc1ccc(C(=O)Nc2noc3cccc(OCc4ccc(C)cc4)c23)cc1` [Example 168, N-[4-(4-methylbenzyloxy)benzo[d]isoxazol-3-yl]-4-propylbenzamide], 32.2%.
In the case of `CCC(C)C(=O)Nc1noc2ccc(Br)cc12` (centres unmarked) [Example 135, N-(5-bromobenzo[d]isoxazol-3-yl)-2-methyl butyramide], the “mGluR5 receptor inhibition … in % (10 μM)” value was 40.00%.
Regarding `O=C(Nc1noc2ccc(F)cc12)c1ccc2ccccc2c1` [Example 106, naphthalene-2-(5-fluorobenzo[d]isoxazol-3-yl)carboxamide], the “mGluR5 receptor inhibition … in % (10 μM)” value is 33.72%.
Molecule `COc1cccc(C(=O)Nc2noc3ccc(Br)cc23)c1` [Example 142, N-(5-bromobenzo[d]isoxazol-3-yl)-3-methoxybenzamide] returned an inhibition at 10 µM of 37.8%.
Still for that read-out and setting: in the case of `O=C(Nc1noc2cccc(F)c12)c1ccccc1F` [Example 149, 2-fluoro-N-(4-fluorobenzo[d]isoxazol-3-yl)benzamide] it was 32.5%; in that of `Cc1ccccc1C(=O)Nc1noc2c(F)cccc12` [Example 99, N-(7-fluorobenzo[d]isoxazol-3-yl)-2-methylbenzamide], 43%.
`O=C(Nc1noc2ccccc12)c1ccc(C(F)(F)F)c(F)c1` [Example 88, N-benzo[d]isoxazol-3-yl-3-fluoro-4-trifluoromethylbenzamide] returned an inhibition at 10 µM of 30%.
Turning to `CN(C)c1cccc2onc(NC(=O)c3cc(F)cc(C(F)(F)F)c3)c12` [Example 169, N-(4-dimethylaminobenzo[d]isoxazol-3-yl)-3-fluoro-5-trifluoromethylbenzamide], testing at 10 µM gave an inhibition of 36.8%.
As to `Cc1cc(C(=O)Nc2noc3ccccc23)no1` [Example 91, 5-methylisoxazole-3-benzo[d]isoxazol-3-ylcarboxamide], the “mGluR5 receptor inhibition … in % (10 μM)” value is 35.00%.
`CC(C)(C)c1ccc(C(=O)Nc2noc3c(F)cccc23)cc1` [Example 94, 4-tert-butyl-N-(7-fluorobenzo[d]isoxazol-3-yl)benzamide] showed an inhibition at 10 µM of 30.8%.
Consider `COc1cccc2onc(NC(=O)c3ccccc3C(F)(F)F)c12` [Example 158, N-(4-methoxybenzo[d]isoxazol-3-yl)-2-trifluoromethylbenzamide], for which at 10 µM the inhibition was 36.1%.
Take `Cc1cccc(C(=O)Nc2noc3ccc(C)cc23)c1` [Example 143, 3-methyl-N-(5-methylbenzo[d]isoxazol-3-yl)benzamide]: the “mGluR5 receptor inhibition … in % (10 μM)” value was 44.66%.
In the case of `Cc1cc(C(=O)Nc2noc3ccc(Br)cc23)c(C)o1` [Example 134, 2,5-dimethylfuran-3-(5-bromobenzo[d]isoxazol-3-yl)carboxamide], the “mGluR5 receptor inhibition … in % (10 μM)” value amounted to 43.11%.
`CN(C)c1cccc2onc(NC(=O)c3ccc(Cl)c(Cl)c3)c12` [Example 170, 3,4-dichloro-N-(4-dimethylaminobenzo[d]isoxazol-3-yl)benzamide]: 10 µM produced 38% inhibition.
In turn, `COc1cccc2onc(NC(=O)c3ccccc3Cl)c12` [Example 157, 2-chloro-N-(4-methoxybenzo[d]isoxazol-3-yl)benzamide] returned an inhibition at 10 µM of 32.4%.
Still for that read-out and setting: in the case of `COc1ccc(C(=O)Nc2noc3ccc(Br)cc23)cc1OC` [Example 137, N-(5-bromobenzo[d]isoxazol-3-yl)-3,4-dimethoxybenzamide] it was 31.2%.
In the case of `CN(C)c1cccc2onc(NC(=O)C34CC5CC(CC(C5)C3)C4)c12` [Example 172, adamantane-1-(4-dimethylaminobenzo[d]isoxazol-3-yl)carboxamide], the “mGluR5 receptor inhibition … in % (10 μM)” value is listed as 51.40%.
